For assay [1] the following is noted: Laengle J, et al. (2020); cited from earlier work.
The test system of assay [2] is THP1-derived macrophages. Description: M1/M2 marker gene expression in THP1-derived macrophages by qRT-PCR. Format: cell-based, human. The following applies: gene expression (FIG. 7H). As for the experimental part:
(§1) Macrophages were polarized to M1-like phenotype using 50 ng/mL of interferon gamma (IFNγ, 575306, Biolegend) and 100 ng/mL of bacterial lipopolysaccharide (LPS, L2880, Sigma Aldrich, St. Louis, MO) for 24 hours. To polarize macrophages towards the M2-like phenotype, macrophages were stimulated with 20 ng/mL of IL-4 (214-14, PeproTech) and 20 ng/mL of IL-13 (575904, Biolegend). THP1 monocytes were treated with 5 ng/mL of phorbol 12-myristate 13-acetate (PMA) to induce differentiation into macrophages. Once converted to macrophages, media was replaced to remove PMA prior to treatment and/or polarization. Polarization towards M1 and M2 phenotypes was performed with respective recombinant human cytokines from PeproTech: 50 ng/mL of IFNγ (300-02), 20 ng/mL IL-4 (200-04), and 20 ng/mL IL-13 (200-13). 100 ng/mL LPS was also used to polarize toward the M1 phenotype. 3. In vivo Studies.
qRT-PCR: Total RNA was extracted from cells using the Trizol reagent according to manufacturer's instructions (ThermoFisher Scientific, 15596018). Samples were then processed immediately or stored at −80° C. RNA was quantified using a NanoDrop One Spectrophotometer (ThermoFisher Scientific). The 260/280 ratios were routinely over 1.8. Sample cDNA was produced using the iScript cDNA synthesis kit (Bio-Rad, 1708891). Target mRNA was quantified using MyIQ single-color real-time PCR detection system from Bio-Rad (Bio-Rad, Hercules, CA) and iQ SYBR green Supermix (Bio-Rad, 1708882). The following primers were synthesized by Invitrogen (Waltham, MA) with sequences designed by Origene (Rockville, MD): mouse R-actin (MP200232), mouse Nos2 (MP208933), mouse MRC1 (MP207800), human R-actin (HP204660), human IL-1β (HP200544), human MRC1 (HP206121), human NOS2 (HP200591), human CD209 (HP214086), mouse SIRPα (MP215450), mouse LRP1 (MP207604), human LRP1 (HP206040), mouse MFGE8 (MP208190), human MFGE8 (HP225757), mouse CD36 (MP201923), human CD36 (HP200058), and mouse CD47 (MP201932). Primers for mouse ARG-1 (PPM31770C) and human SIRPα (QT01031051) were purchased from Qiagen (Hilden, Germany). Human CD47 primer sequences were obtained from Sudo T, et al and are 5′-[…]-3′ (sense) (SEQ ID NO:01) and 5′-[…]-3′ (antisense) (SEQ ID NO:02) (Sudo T, et al. (2017) Oncol. Lett. 14:801-809). Human CD86 primer sequences are 5′-[…]-3′ (sense) (SEQ ID NO:03) and 5′-[…]-3′ (antisense) (SEQ ID NO:04). Mouse CD80 sequences are 5′-[…]-3′ (sense) (SEQ ID NO:05) and 5′-[…]-3′ (antisense) (SEQ ID NO:06). Cycling conditions were set as per manufacturer's instructions. Single product amplification was confirmed by melting curve analysis. Quantification is expressed in arbitrary units and target mRNA levels were normalized to R-actin expression. […]
For orientation: Quantitative PCR measures a nucleic acid by following its amplification.

Assay [3] relates to A31A7 macrophages and BMDMs. The assay is described as follows: Macrophage M1/M2 marker gene expression by qRT-PCR. Format: cell-based, mouse. The following applies: A31A7; qRT-PCR (FIG. 7D-FIG. 7E). How it is done:
Bone marrow-derived macrophages were isolated from the femurs and tibias of wild-type C57/Bl6, HDAC6 knockout (C57BL/6J-Hdac6em2Lutzy/J, 029318, Jackson Laboratory), or UBC-GFP (C57BL/6-Tg(UBC-GFP)30Scha/J, 004353, Jackson Laboratory). Isolated bone marrow cells were cultured in RPMI 1640 complete medium with 10% FBS, 1% NEAA, and 1% penicillin-streptomycin in 5% CO2 at 37° C. Medium was supplemented with murine recombinant M-CSF (20 ng/mL, 576404, Biolegend) to differentiate monocytes into macrophages. Three days after bone marrow isolation, undifferentiated and floating cells were washed with PBS and replaced with fresh RPMI media. […]
as §1
qRT-PCR: Total RNA was extracted from cells using the Trizol reagent according to manufacturer's instructions (ThermoFisher Scientific, 15596018). Samples were then processed immediately or stored at −80° C. RNA was quantified using a NanoDrop One Spectrophotometer (ThermoFisher Scientific). The 260/280 ratios were routinely over 1.8. Sample cDNA was produced using the iScript cDNA synthesis kit (Bio-Rad, 1708891). Target mRNA was quantified using MyIQ single-color real-time PCR detection system from Bio-Rad (Bio-Rad, Hercules, CA) and iQ SYBR green Supermix (Bio-Rad, 1708882). The following primers were synthesized by Invitrogen (Waltham, MA) with sequences designed by Origene (Rockville, MD): mouse R-actin (MP200232), mouse Nos2 (MP208933), mouse MRC1 (MP207800), human R-actin (HP204660), human IL-1β (HP200544), human MRC1 (HP206121), human NOS2 (HP200591), human CD209 (HP214086), mouse SIRPα (MP215450), mouse LRP1 (MP207604), human LRP1 (HP206040), mouse MFGE8 (MP208190), human MFGE8 (HP225757), mouse CD36 (MP201923), human CD36 (HP200058), and mouse CD47 (MP201932). Primers for mouse ARG-1 (PPM31770C) and human SIRPα (QT01031051) were purchased from Qiagen (Hilden, Germany). Human CD47 primer sequences were obtained from Sudo T, et al and are 5′-[…]-3′ (sense) (SEQ ID NO:01) and 5′-[…]-3′ (antisense) (SEQ ID NO:02) (Sudo T, et al. (2017) Oncol. Lett. 14:801-809). Human CD86 primer sequences are 5′-[…]-3′ (sense) (SEQ ID NO:03) and 5′-[…]-3′ (antisense) (SEQ ID NO:04). Mouse CD80 sequences are 5′-[…]-3′ (sense) (SEQ ID NO:05) and 5′-[…]-3′ (antisense) (SEQ ID NO:06). Cycling conditions were set as per manufacturer's instructions. Single product amplification was confirmed by melting curve analysis. Quantification is expressed in arbitrary units and target mRNA levels were normalized to R-actin expression.

Assay [4] has as its system human THP1-derived macrophages. Description: Pro-phagocytic signal gene expression in THP1-derived macrophages. Type of assay: cell-based. The following applies: human THP1-derived macrophages (FIG. 8E); corroboration of NextA increase. How it is done: as §1
(§2) qRT-PCR: Total RNA was extracted from cells using the Trizol reagent according to manufacturer's instructions (ThermoFisher Scientific, 15596018). Samples were then processed immediately or stored at −80° C. RNA was quantified using a NanoDrop One Spectrophotometer (ThermoFisher Scientific). The 260/280 ratios were routinely over 1.8. Sample cDNA was produced using the iScript cDNA synthesis kit (Bio-Rad, 1708891). Target mRNA was quantified using MyIQ single-color real-time PCR detection system from Bio-Rad (Bio-Rad, Hercules, CA) and iQ SYBR green Supermix (Bio-Rad, 1708882). The following primers were synthesized by Invitrogen (Waltham, MA) with sequences designed by Origene (Rockville, MD): mouse R-actin (MP200232), mouse Nos2 (MP208933), mouse MRC1 (MP207800), human R-actin (HP204660), human IL-1β (HP200544), human MRC1 (HP206121), human NOS2 (HP200591), human CD209 (HP214086), mouse SIRPα (MP215450), mouse LRP1 (MP207604), human LRP1 (HP206040), mouse MFGE8 (MP208190), human MFGE8 (HP225757), mouse CD36 (MP201923), human CD36 (HP200058), and mouse CD47 (MP201932). […] Quantification is expressed in arbitrary units and target mRNA levels were normalized to R-actin expression.

For assay [5], the system named is B16 melanoma cells. The assay is described as follows: Cd47 mRNA upon IFNγ stimulation in B16 cells. Type of assay: cell-based, mouse. How it is done: as §2, with “(MP201932). Primers for mouse ARG-1 (PPM31770C) and human SIRPα (QT01031051) were purchased from Qiagen (Hilden, Germany).” for “(MP201932).”
(§3) Although the mechanism by which IFNγ drives CD47 upregulation is unclear, IFNγ expression correlates to CD47 expression in skin cutaneous melanoma (Ye Z H, et al. (2021) Transl. Oncol. 14:101162). The kinetics of Cd47 mRNA in SM1 and B16 cells upon IFNγ stimulation (100 ng/mL) were evaluated and these mouse melanoma models were determined to have different kinetics (FIG. 9A-FIG. 9B). It was determined that 12 hours was a time point for both models to sustain the IFNγ-mediated upregulation. In FIG. 9B, the role of HDAC6 inhibitors NextA and Tubastatin A in abrogating Cd47 upregulation upon stimulation with IFNγ for 12 hours was evaluated.

For assay [6], the system named is SM1 melanoma cells. The assay is described as follows: Cd47 mRNA upon IFNγ stimulation in SM1 cells. Type of assay: cell-based, mouse. How it is done:
as §2, with “(MP201932). Primers for mouse ARG-1 (PPM31770C) and human SIRPα (QT01031051) were purchased from Qiagen (Hilden, Germany).” for “(MP201932).”
as §3

Assay [7] has as its target mouse CD47 on the surface of SM1 melanoma cells (mouse) (UniProt Q61735). Description: flow cytometry titration on SM1 cells; free CD47 read with PE anti-mouse CD47 (miap301), bound antibody read with PE anti-rat IgG2a. A general note: In flow cytometry, cells or beads pass a laser one at a time.
UniProt Q61735, sequence (Q61735 19-303): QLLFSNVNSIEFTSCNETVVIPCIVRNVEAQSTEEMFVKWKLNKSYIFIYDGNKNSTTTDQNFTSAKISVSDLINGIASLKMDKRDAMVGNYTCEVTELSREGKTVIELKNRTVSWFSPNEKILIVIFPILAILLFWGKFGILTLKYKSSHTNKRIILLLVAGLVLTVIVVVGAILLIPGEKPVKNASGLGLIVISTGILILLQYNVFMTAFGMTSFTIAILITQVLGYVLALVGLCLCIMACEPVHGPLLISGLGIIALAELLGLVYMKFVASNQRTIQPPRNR
Where [8] appears, read: IFNγ stimulation (100 ng/mL) for 12 hours.

In the case of `O=C(CCCCCCC(=O)Nc1ccccc1)NO` [SAHA, suberoylanilide hydroxamic acid], in assay [1], the trastuzumab-mediated phagocytosis entry is reported as “enhance trastuzumab-mediated phagocytosis”.

As for `O=C(CCCCCCC(=O)Nc1ccc([C@H]2O[C@@H](CSc3nc(-c4ccccc4)c(-c4ccccc4)o3)C[C@@H](c3ccc(CO)cc3)O2)cc1)NO` [Tubacin], in assay [2], the “effects on THP1-derived macrophage M2-like polarization” value is recorded as “verified”. In assay [3], the “Arg1 in M2 polarized macrophages” value is “downregulated” and the “Cd80 expression in M1-like macrophages” value is on record as “upregulated”. The “expression of pro-phagocytic signals” value in assay [4] is given as “corroborated”.

Take `CN1CCc2c(c3ccccc3n2Cc2ccc(C(=O)NO)cc2)C1` [Tubastatin A]: the “effects on THP1-derived macrophage M2-like polarization” value in assay [2] is reported as “verified”. Also, the “IFNγ-driven Cd47 upregulation at the transcriptional level” value in assay [5] (IFNγ for 12 hours) is “repressed these effects”. Moreover, in assay [3], the “Arg1 in M2 polarized macrophages” value is listed as “downregulated” and the “Cd80 expression in M1-like macrophages” value was “upregulated”. In addition, the “IFNγ-driven Cd47 upregulation at the transcriptional level” value in assay [6] (IFNγ for 12 hours) was “repressed these effects”. For the same molecule, in assay [4], the “expression of pro-phagocytic signals” value is listed as “corroborated”.

In assay [7], “anti-mouse CD47 (clone miap301, 127502, Biolegend) (antibody)” yielded a lowest antibody concentration that provided maximum surface CD47 blockade and epitope saturation of 25 µg/mL.

B1: IFNγ: interferon gamma, cytokine used to stimulate Cd47 upregulation (protein, UniProt P01580 23-155, looked up)
Interferon gamma: HGTVIESLESLNNYFNSSGIDVEEKSLFLDIWRNWQKDGDMKILQSQIISFYLRLFEVLKDNQAISNNISVIESHLITTFFSNSKAKKDAFMSIAKFEVNNPQVQRQAFNELIRVVHQLLPESSLRKRKRSRC
In the case of B1, the Cd47 upregulation in assay [5] (setting [8]) is given as 10 fold; in assay [6] (setting [8]), 1.6 fold.

The values above are taken from patent US20230391868A1, “COMPOSITIONS FOR AND METHODS OF TREATING CANCER” (The George Washington University, priority 2022, published 2023).
